Measurements from publication PMC8364686, “Safety, tolerability, pharmacokinetics and pharmacodynamics of single oral doses of BI 187004, an inhibitor of 11beta-hydroxysteroid dehydrogenase-1, in healthy male volunteers with overweight or obesity” (Clinical Diabetes and Endocrinology, 2021).

Assay: Plasma pharmacokinetics of BI 187004 after single oral doses (LC–MS/MS)
Settings: male, human, plasma, po; for concentration at 6 h: planned time 6 h; for concentration at 8 h: planned time 8 h; for concentration at 10 h: planned time 10 h; for concentration at 12 h: planned time 12 h; for concentration at 36 h: planned time 36 h; for concentration at 48 h: planned time 48 h; for concentration at 72 h: planned time 72 h; for concentration at 96 h: planned time 96 h; for concentration at 0.5 h: planned time 0.5 h; for concentration at 1 h: planned time 1 h; for concentration at 1.5 h: planned time 1.5 h; for concentration at 2 h: planned time 2 h; for concentration at 2.5 h: planned time 2.5 h; for concentration at 3 h: planned time 3 h; for concentration at 4 h: planned time 4 h; for concentration at 5 h: planned time 5 h
[1] = 20 mg, BI 187004 plasma concentrations, 20 mg single oral, gMean
[2] = 20 mg, BI 187004 plasma concentrations, 20 mg single oral, Max
[3] = 20 mg, BI 187004 plasma concentrations, 20 mg single oral, Mean
[4] = 20 mg, BI 187004 plasma concentrations, 20 mg single oral, Median
[5] = 20 mg, BI 187004 plasma concentrations, 20 mg single oral, Min
[6] = 40 mg, BI 187004 plasma concentrations, 40 mg single oral, Max
[7] = 40 mg, BI 187004 plasma concentrations, 40 mg single oral, Mean
[8] = 40 mg, BI 187004 plasma concentrations, 40 mg single oral, Median
[9] = 40 mg, BI 187004 plasma concentrations, 40 mg single oral, Min
[10] = 40 mg, BI 187004 plasma concentrations, 40 mg single oral, gMean
[11] = 40 mg, BI 187004 plasma concentrations, 40 mg single oral, individual subjects

Q: Which concentration at 6 h [1] does the source give for N#Cc1ccc2c(c1)[C@H]1CCCN(C(=O)c3ccc4[nH]cnc4c3)[C@H]1C2 [BI 187004] here?
A: Its concentration at 6 h is 547 nM.

Q: And the concentration at 8 h [2]?
A: The concentration at 8 h was 645 nM.

Q: What about the concentration at 8 h [3] of the same compound?
A: The concentration at 8 h was 464 nM.

Q: And the concentration at 8 h [4]?
A: Its concentration at 8 h is 398 nM.

Q: And the concentration at 8 h [5]?
A: Its concentration at 8 h is 354 nM.

Q: What about the concentration at 8 h [1] of the same compound?
A: Its concentration at 8 h is 449 nM.

Q: And the concentration at 8 h (20 mg, BI 187004 plasma concentrations, 20 mg single oral, individual subjects)?
A: The concentration at 8 h was 645 nM.

Q: And the concentration at 10 h [2]?
A: The concentration at 10 h was 529 nM.

Q: What about the concentration at 10 h [3] of the same compound?
A: Its concentration at 10 h is 398 nM.

Q: What about the concentration at 10 h [4] of the same compound?
A: The concentration at 10 h was 398 nM.

Q: What about the concentration at 10 h [5] of the same compound?
A: Its concentration at 10 h is 253 nM.

Q: And the concentration at 10 h [1]?
A: Its concentration at 10 h is 382 nM.

Q: What about the concentration at 12 h [2] of the same compound?
A: The concentration at 12 h was 457 nM.

Q: And the concentration at 12 h [3]?
A: Its concentration at 12 h is 331 nM.

Q: What about the concentration at 12 h [4] of the same compound?
A: Its concentration at 12 h is 311 nM.

Q: And the concentration at 12 h [5]?
A: Its concentration at 12 h is 221 nM.

Q: What about the concentration at 12 h [1] of the same compound?
A: The concentration at 12 h was 316 nM.

Q: What about the concentration at 24 h (20 mg, BI 187004 plasma concentrations, 20 mg single oral, planned time 24 h, Max) of the same compound?
A: Its concentration at 24 h is 353 nM.

Q: What about the concentration at 24 h (20 mg, BI 187004 plasma concentrations, 20 mg single oral, planned time 24 h, Mean) of the same compound?
A: The concentration at 24 h was 187 nM.

Q: What about the concentration at 24 h (20 mg, BI 187004 plasma concentrations, 20 mg single oral, planned time 24 h, Median) of the same compound?
A: The concentration at 24 h was 155 nM.

Q: And the concentration at 24 h (20 mg, BI 187004 plasma concentrations, 20 mg single oral, planned time 24 h, Min)?
A: Its concentration at 24 h is 85.8 nM.

Q: And the concentration at 24 h (20 mg, BI 187004 plasma concentrations, 20 mg single oral, planned time 24 h, gMean)?
A: Its concentration at 24 h is 161 nM.

Q: And the concentration at 36 h [2]?
A: The concentration at 36 h was 145 nM.

Q: What about the concentration at 36 h [3] of the same compound?
A: The concentration at 36 h was 67.3 nM.

Q: And the concentration at 36 h [4]?
A: Its concentration at 36 h is 51.1 nM.

Q: What about the concentration at 36 h [5] of the same compound?
A: The concentration at 36 h was 27.8 nM.

Q: What about the concentration at 36 h [1] of the same compound?
A: Its concentration at 36 h is 55.4 nM.

Q: What about the concentration at 48 h [2] of the same compound?
A: Its concentration at 48 h is 104 nM.

Q: What about the concentration at 48 h [3] of the same compound?
A: The concentration at 48 h was 45.6 nM.

Q: And the concentration at 48 h [4]?
A: Its concentration at 48 h is 34.4 nM.

Q: What about the concentration at 48 h [5] of the same compound?
A: Its concentration at 48 h is 15.8 nM.

Q: What about the concentration at 48 h [1] of the same compound?
A: The concentration at 48 h was 35.9 nM.

Q: And the concentration at 72 h [2]?
A: The concentration at 72 h was 43.9 nM.

Q: What about the concentration at 72 h [3] of the same compound?
A: The concentration at 72 h was 20.5 nM.

Q: What about the concentration at 72 h [4] of the same compound?
A: Its concentration at 72 h is 16.4 nM.

Q: And the concentration at 72 h [5]?
A: Its concentration at 72 h is 6.98 nM.

Q: And the concentration at 72 h [1]?
A: The concentration at 72 h was 16.5 nM.

Q: What about the concentration at 96 h [2] of the same compound?
A: The concentration at 96 h was 18.2 nM.

Q: And the concentration at 96 h [3]?
A: The concentration at 96 h was 10.4 nM.

Q: What about the concentration at 96 h [4] of the same compound?
A: The concentration at 96 h was 9.48 nM.

Q: And the concentration at 96 h [5]?
A: The concentration at 96 h was 5.78 nM.

Q: What about the concentration at 96 h [1] of the same compound?
A: Its concentration at 96 h is 9.42 nM.

Q: What about the concentration at 24 h (20 mg, C24 gMean (%gCV), 20 mg single oral dose) of the same compound?
A: Its concentration at 24 h is 161 nM.

Q: What about the AUC(0-inf) (40 mg) of the same compound?
A: The AUC(0-inf) was 25.9 µM·h.

Q: What about the AUC(0-t) (40 mg) of the same compound?
A: Its AUC(0-t) is 19.9 µM·h.

Q: And the Cmax (40 mg)?
A: The Cmax was 2210 nM.

Q: What about the Tmax (40 mg) of the same compound?
A: The Tmax was 1 h.

Q: And the Vd/F (40 mg)?
A: Its Vd/F is 123 L.

Q: And the half-life (40 mg)?
A: The half-life was 18.9 h.

Q: And the concentration at 0.5 h [6]?
A: Its concentration at 0.5 h is 2530 nM.

Q: And the concentration at 0.5 h [7]?
A: The concentration at 0.5 h was 1760 nM.

Q: And the concentration at 0.5 h [8]?
A: Its concentration at 0.5 h is 1980 nM.

Q: What about the concentration at 0.5 h [9] of the same compound?
A: Its concentration at 0.5 h is 487 nM.

Q: And the concentration at 0.5 h [10]?
A: The concentration at 0.5 h was 1520 nM.

Q: And the concentration at 1 h [6]?
A: The concentration at 1 h was 2820 nM.

Q: What about the concentration at 1 h [7] of the same compound?
A: The concentration at 1 h was 2170 nM.

Q: And the concentration at 1 h [8]?
A: The concentration at 1 h was 2410 nM.

Q: And the concentration at 1 h [9]?
A: Its concentration at 1 h is 974 nM.

Q: And the concentration at 1 h [10]?
A: Its concentration at 1 h is 2050 nM.

Q: And the concentration at 1.5 h [6]?
A: Its concentration at 1.5 h is 2610 nM.

Q: And the concentration at 1.5 h [7]?
A: The concentration at 1.5 h was 1950 nM.

Q: And the concentration at 1.5 h [8]?
A: The concentration at 1.5 h was 2160 nM.

Q: And the concentration at 1.5 h [9]?
A: Its concentration at 1.5 h is 1020 nM.

Q: What about the concentration at 1.5 h [10] of the same compound?
A: Its concentration at 1.5 h is 1870 nM.

Q: And the concentration at 2 h [6]?
A: Its concentration at 2 h is 2410 nM.

Q: What about the concentration at 2 h [7] of the same compound?
A: The concentration at 2 h was 1760 nM.

Q: What about the concentration at 2 h [8] of the same compound?
A: The concentration at 2 h was 1860 nM.

Q: And the concentration at 2 h [9]?
A: Its concentration at 2 h is 1040 nM.

Q: And the concentration at 2 h [10]?
A: The concentration at 2 h was 1700 nM.

Q: And the concentration at 2.5 h [6]?
A: Its concentration at 2.5 h is 2180 nM.

Q: What about the concentration at 2.5 h [7] of the same compound?
A: The concentration at 2.5 h was 1750 nM.

Q: And the concentration at 2.5 h [8]?
A: The concentration at 2.5 h was 1870 nM.

Q: And the concentration at 2.5 h [9]?
A: The concentration at 2.5 h was 1160 nM.

Q: And the concentration at 2.5 h [10]?
A: Its concentration at 2.5 h is 1710 nM.

Q: What about the concentration at 2.5 h [11] of the same compound?
A: Its concentration at 2.5 h is 2180 nM.

Q: And the concentration at 3 h [6]?
A: Its concentration at 3 h is 1810 nM.

Q: What about the concentration at 3 h [7] of the same compound?
A: The concentration at 3 h was 1530 nM.

Q: What about the concentration at 3 h [8] of the same compound?
A: The concentration at 3 h was 1560 nM.

Q: What about the concentration at 3 h [9] of the same compound?
A: Its concentration at 3 h is 1130 nM.

Q: And the concentration at 3 h [10]?
A: Its concentration at 3 h is 1510 nM.

Q: What about the concentration at 3 h [11] of the same compound?
A: Its concentration at 3 h is 1680 nM.

Q: What about the concentration at 4 h [6] of the same compound?
A: Its concentration at 4 h is 1700 nM.

Q: What about the concentration at 4 h [7] of the same compound?
A: Its concentration at 4 h is 1460 nM.

Q: And the concentration at 4 h [8]?
A: The concentration at 4 h was 1530 nM.

Q: What about the concentration at 4 h [9] of the same compound?
A: The concentration at 4 h was 1020 nM.

Q: What about the concentration at 4 h [10] of the same compound?
A: The concentration at 4 h was 1440 nM.

Q: What about the concentration at 4 h [11] of the same compound?
A: Its concentration at 4 h is 1640 nM.

Q: What about the concentration at 5 h [6] of the same compound?
A: Its concentration at 5 h is 1610 nM.

Q: What about the concentration at 5 h [7] of the same compound?
A: The concentration at 5 h was 1320 nM.

Q: And the concentration at 5 h [8]?
A: Its concentration at 5 h is 1350 nM.

Q: What about the concentration at 5 h [9] of the same compound?
A: The concentration at 5 h was 888 nM.

Q: What about the concentration at 5 h [10] of the same compound?
A: Its concentration at 5 h is 1290 nM.

Q: And the concentration at 5 h [11]?
A: Its concentration at 5 h is 1440 nM.

Q: What about the concentration at 6 h [6] of the same compound?
A: The concentration at 6 h was 1400 nM.

Q: And the concentration at 6 h [7]?
A: The concentration at 6 h was 1120 nM.

Q: What about the concentration at 6 h [8] of the same compound?
A: Its concentration at 6 h is 1130 nM.

Q: And the concentration at 6 h [9]?
A: The concentration at 6 h was 736 nM.

Q: And the concentration at 6 h [10]?
A: The concentration at 6 h was 1090 nM.

Q: What about the concentration at 6 h [11] of the same compound?
A: The concentration at 6 h was 1230 nM.

Q: What about the concentration at 8 h [6] of the same compound?
A: Its concentration at 8 h is 1190 nM.

Q: And the concentration at 8 h [7]?
A: Its concentration at 8 h is 951 nM.

Q: What about the concentration at 8 h [8] of the same compound?
A: The concentration at 8 h was 987 nM.

Q: What about the concentration at 8 h [9] of the same compound?
A: The concentration at 8 h was 606 nM.

Q: What about the concentration at 8 h [10] of the same compound?
A: Its concentration at 8 h is 929 nM.

Q: What about the concentration at 8 h [11] of the same compound?
A: Its concentration at 8 h is 1000 nM.
